Experimental data: patent publication US20240279201A1, “DUAL WNT SIGNALING PATHWAY INHIBITORS AND AMPK ACTIVATORS FOR TREATMENTS OF DISEASE” (priority 2021, published 2024)

Tests used:
[1] = tested on: Wnt/β-Catenin signaling pathway; test: Wnt signaling luciferase (TOPflash) reporter gene assay; format: cell-based; settings: for IC50: luciferase reporter gene assay, mean of three independent experiments, read-out: IC50 (nM) to inhibit the Wnt signaling activity
Excerpt: A dual-luciferase gene reporter assay was used to test inhibitory activities of new compounds on Wnt signaling. […] Therefore, the effects of new compounds on AMPK was examined. […]

[2] = Cytotoxicity (CC50) during the luciferase gene reporter assay; format: cell-based; settings: human, HEK293 cells; short treatment duration of the luciferase gene reporter assay
[3] = tested on: Wnt signaling in SW480 cells; test: Luciferase gene reporter (TOPflash) assay in SW480 cells; format: cell-based, human
CRC cells = settings: as reported in literature; cited from earlier work
HEK293 cells = test: Cytotoxicity (CC50) during the luciferase gene reporter assay; format: cell-based; settings: short treatment duration of the luciferase gene reporter assay
AMPK [4] = test: AMPK activation in SW620 cells (immunoblotting); format: cell-based
Protocol: HEK293 cells were stained with anti-axin-1 or DAPI and studied under fluorescence microscopy. FIG. 26B is an image illustrating enhanced AMPK phosphorylation by Axin overexpression (empty pcDNA3 vs. pcDNA3-Axin-1) in HEK293 cells. […] See FIG. 23A-FIG. 23C for Axin knockdown. […] Cells were treated for 24 h.
Treatment of compound YW2049 indicated no effects on total protein levels of AMPK and ACC in SW620 cells.
The effects of FX analogs in Axin stabilization and AMPK activation were further studied by genetic manipulation of Axin. Axin overexpression led to enhanced AMPK activation (FIG. 26A and FIG. 26B). In contrast, it has been reported that knockdown of Axin in cells and in mouse liver impairs AMPK activation. […] This timeline is consistent with the reports that Axin can form a complex with AMPK.

physchem = settings: water, aqueous solubility
Protocol: (§1) The ADMET and PK properties of YA6060 was determined.
Determination of physiochemical properties. The profiles of six selected analogs is estimated in silico, and selected Axin stabilizers are evaluated in in vitro assays: the aqueous solubility is determined using a multiscreen solubility filter plate (Millipore, Billerica, MA) coupled with LC-MS/MS, as performed for the already synthesized YA6060 analogs; the cell viability assays on selected analogs is measured using HEK293 cells; the intestinal permeability by determining the transport from the apical to the basolateral (A to B) in Caco-2 monolayers; the metabolic stability by incubating the compounds with mouse microsomes and liver tissue S9 fraction and analyzing by LC-MS/MS.

in vivo = settings: C57/BL6, mouse, in vivo, po
Protocol: as §1
PK/Tox. The four selected compounds from in vitro evaluation above are subjected to PK and toxicity assessment in C57/BL6 mice. […] Compound concentrations is determined by LC/MS/MS. PK analysis is carried out on Phoenix Winnolin using non-compartmental analysis and compartment models. Compound accumulation in major tissues, including liver, kidney, heart, brain and intestine, are quantified. […] For study ii, a half number of mice per group are sacrificed immediately after the 3-week course and the remaining after a 2-week washout period to assess delayed toxicity. In toxicity studies, blood is collected upon euthanasia for liver and renal chemistries and complete blood counts, and major organs harvested and examined macro- and microscopically by veterinarian pathologists. It is expected that an understanding of PK properties, such as bioavailability, AUC, clearance, and toxic effects, such as general tolerance and specific toxicity in the liver, kidney, other major organs, and particularly Wnt-dependent tissues, such as intestine, stomach, and skin is established for these selected compounds.

[5] = tested on: Wnt signaling in SW620 cells; test: Luciferase gene reporter (TOPflash) assay in SW620 cells; format: cell-based; settings: Homo sapiens, SW-620, read-out: IC50, inhibition of Wnt signaling
HT29 cells = test: Viability of HT29 cells; format: cell-based; settings: Homo sapiens, HT-29, read-out: IC50, cell viability
AMPK [6] = test: Western blotting of phosphorylated AMPK in HEK293 cells; format: cell-based; settings: 100 nM, 24 h
Protocol: (§2) FIG. 6A-FIG. 6E illustrate the development of Axin stabilizers with dual activities of Wnt inhibition and AMPK activation. […] HEK293 cells were used. B&C: 100 nM compounds, 24 h. FIG. 6D is a table showing the activity profile of YA6060. F=bioavailability; soubility is aqueous solubility.
(§3) A dual-luciferase gene reporter assay was used to test inhibitory activities of new compounds on Wnt signaling. […] Axin is also reported to form a complex with AMPK and its upstream kinase LKB1 (FIG. 12A and FIG. 12B) to facilitate AMPK activation. Therefore, the effects of new compounds on AMPK was examined. […] YA6060 and its analogs had dual activities of potent Wnt signaling inhibition and AMPK activation, which were dependent on the levels of scaffolding protein Axin.

β-catenin = β-catenin (Homo sapiens (Human), UniProt P35222); test: Western blotting of β-catenin in HEK293 cells; format: cell-based; settings: 100 nM, 24 h
Protocol: as §2, §3

Axin 1 = Axin 1 (Homo sapiens (Human), UniProt O15169); test: Western blotting of Axin 1 in HEK293 cells; format: cell-based; settings: 100 nM, 24 h
Protocol: as §2, §3

[7] = tested on: SW480, SW620, and HT29 cells; test: Colony formation assay; format: cell-based
Excerpt: FIG. 23A is an image illustrating a colony formation assay. […] The orange circle indicates cells in early apoptosis.

SW620 xenograft = SW620 xenograft in nude mice; format: in vivo
RPS6KA3 = RPS6KA3 (Homo sapiens (Human), UniProt P51812); test: Off-target kinase panel, RPS6KA3; settings: read-out: inhibition of RPS6KA3
SW480 cells = test: Mitochondrial function in SW480 cells

RPS6KA3, sequence (P51812 whole entry, species assumed): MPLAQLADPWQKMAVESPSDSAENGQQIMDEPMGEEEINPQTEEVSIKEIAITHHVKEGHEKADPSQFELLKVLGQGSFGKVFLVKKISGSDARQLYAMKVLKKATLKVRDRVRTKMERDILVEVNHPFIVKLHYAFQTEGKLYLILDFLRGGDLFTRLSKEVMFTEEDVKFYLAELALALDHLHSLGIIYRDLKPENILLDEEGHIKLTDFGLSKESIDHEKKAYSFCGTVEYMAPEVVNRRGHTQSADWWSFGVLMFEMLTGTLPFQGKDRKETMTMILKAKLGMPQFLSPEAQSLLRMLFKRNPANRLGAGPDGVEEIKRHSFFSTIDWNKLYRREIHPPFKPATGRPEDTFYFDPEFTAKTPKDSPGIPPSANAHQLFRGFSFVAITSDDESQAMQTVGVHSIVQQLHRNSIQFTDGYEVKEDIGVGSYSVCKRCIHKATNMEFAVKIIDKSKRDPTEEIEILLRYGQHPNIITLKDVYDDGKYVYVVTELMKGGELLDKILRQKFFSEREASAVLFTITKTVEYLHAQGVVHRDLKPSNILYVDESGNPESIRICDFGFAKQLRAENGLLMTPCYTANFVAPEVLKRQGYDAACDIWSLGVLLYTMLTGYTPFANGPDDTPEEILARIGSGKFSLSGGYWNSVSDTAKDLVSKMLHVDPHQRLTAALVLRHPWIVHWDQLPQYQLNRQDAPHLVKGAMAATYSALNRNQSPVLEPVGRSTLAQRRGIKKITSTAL

Oc1nc(-c2ccc(C(F)(F)F)cc2)nc2c1CSCC2 [XAV939, reference compound]
inhibition at 1 µM [1]: 74% | CC50 [2]: > 92 µM | extent of inhibition of Wnt signaling activity in reporter assays [3]: could not fully inhibit Wnt signaling activity

O=C1[O][Pt]2([NH][C@@H]3CCCC[C@H]3[NH]2)[O]C1=O [oxaliplatin]
IC50 in killing CRC cells (CRC cells): low μM

Cc1ccccc1-n1nnc(C(=O)Nc2ccc3cc(CN4CCNCC4)ccc3n2)c1C [YA10951, 5-Methyl-N-(6-(piperazin-1-ylmethyl)quinolin-2-yl)-1-(o-tolyl)-1H-1,2,3-triazole-4-carboxamide]
IC50 [1]: 4.3 nM | CC50 (HEK293 cells): > 92 µM

O=c1[nH]cc(F)c(=O)[nH]1 [5-FU]
IC50 in killing CRC cells (CRC cells): low μM

Cc1ccccc1-n1nnc(C(=O)Nc2ccc3ccccc3n2)c1C [YW1128]
p-AMPK levels (AMPK [4]): increased

Cc1c(C(=O)Nc2ccc3ccccc3n2)cnn1-c1ccccc1Br [YW2065]
CC50 [2]: > 92 µM | solubility (physchem): < 0.01 mg/mL | bioavailability (in vivo): 13% | extent of inhibition of Wnt signaling activity in reporter assays [3]: could abolish Wnt activity at high concentrations | IC50 ([3]; Homo sapiens, read-out: IC50, inhibition of Wnt signaling): 0.0012 µM | IC50 [5]: 0.00019 µM | IC50 (HT29 cells): 17 µM | levels of phosphorylated AMPK (p-AMPK) (AMPK [6]): significantly increased | protein level of β-catenin (β-catenin): decreased | level of Axin 1 (Axin 1): stabilizing | colony formation [7]: inhibited the colony formation | tumor growth and tumor weight (SW620 xenograft; i.p. each day, dose-dependent): reduced both tumor growth | body weight gain (SW620 xenograft; mouse, in vivo): not affected | p-AMPK levels (AMPK [4]): increased | inhibition at 1000 µM (RPS6KA3): 39% | O2 consumption rate and ATP production (SW480 cells): reduced O2 consumption rate

Cc1ccccc1-n1nnc(C(=O)Nc2ccc3cccc(Br)c3n2)c1C [YA6146, N-(8-Bromoquinolin-2-yl)-5-methyl-1-(o-tolyl)-1H-1,2,3-triazole-4-carboxamide]
IC50 [1]: > 1000 nM | CC50 [2]: > 92 µM

O=C(Nc1nc2ccc(F)cc2s1)c1nnn(-c2ccccc2F)c1C(F)(F)F [YA6175, N-(6-Fluorobenzo[d]thiazol-2-yl)-1-(2-fluorophenyl)-5-(trifluoromethyl)-1H-1,2,3-triazole-4-carboxamide]
inhibition at 1 µM [1]: 85% | IC50 [1]: 17 nM | CC50 [2]: > 92 µM
